According to PMC12638379, “An innovative approach to development of new pyrazolylquinolin-2-one hybrids as dual EGFR and BRAF^V600E inhibitors” (Molecular Diversity, 2025):
Read-outs that look alike come from different tables or passages of the source.

Test system: NCI 60 cancer cell lines
Experiment: NCI anticancer screening over a panel of 60 cancer cells, single concentration 10 µM
Format: cell-based, human
Conditions: Homo sapiens, read-out: % Growth Inhibition (GI %)
Method in brief: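 Primary single-dose screen at 10 µM over the NCI panel of 60 human tumour cell lines (leukemia, CNS, lung, colon, kidney, ovary, breast, prostate). The standard NCI Developmental Therapeutics Program protocol was used.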

COc1ccc2[nH]c(=O)cc(-n3ncc(/C(C)=N/Nc4ccc(C(=O)O)cc4)c3C)c2c1 [Compound 4h, (E)-4-(2-(1-(1-(6-methoxy-2-oxo-1,2-dihydroquinolin-4-yl)-5-methyl-1H-pyrazol-4-yl)ethylidene)hydrazineyl)benzoic acid] was tested, and the inhibition at 10 µM (786-0, Renal cancer 786-0, 10 μM) was less than 5%, the inhibition at 10 µM (A498, Renal cancer A498, 10 μM) was less than 5% and the inhibition at 10 µM (A549, Non-small cell lung cancer A549/ATCC, 10 μM) was less than 5%. It also gave an inhibition at 10 µM (ACHN, Renal cancer ACHN, 10 μM) of less than 5%, an inhibition at 10 µM (BT-549, Breast cancer BT-549, 10 μM) of less than 5% and an inhibition at 10 µM (CAKI-1, Renal cancer CAKI-1, 10 μM) of less than 5%. It also gave an inhibition at 10 µM (CCRF-CEM, Leukemia CCRF-CEM, 10 μM) of less than 5%, an inhibition at 10 µM (COLO 205, Colon cancer COLO 205, 10 μM) of less than 5% and an inhibition at 10 µM (DU-145, Prostate cancer DU-145, 10 μM) of less than 5%. The inhibition at 10 µM (EKVX, Non-small cell lung cancer EKVX, 10 μM) was less than 5%, the inhibition at 10 µM (HCC 2998, Colon cancer HCC-2998, 10 μM) was less than 5% and the inhibition at 10 µM (HCT-15, Colon cancer HCT-15, 10 μM) was less than 5%. For the same molecule, the inhibition at 10 µM (HCT-116, Colon cancer HCT-116, 10 μM) was less than 5%, the inhibition at 10 µM (HL-60, Leukemia HL-60(TB), 10 μM) was less than 5% and the inhibition at 10 µM (HOP-62, Non-small cell lung cancer HOP-62, 10 μM) was less than 5%. For the same molecule, the inhibition at 10 µM (HOP-92, Non-small cell lung cancer HOP-92, 10 μM) was 38.5%, the inhibition at 10 µM (HT-29, Colon cancer HT29, 10 μM) was less than 5% and the inhibition at 10 µM (Hs-578T, Breast cancer HS 578T, 10 μM) was less than 5%. The inhibition at 10 µM (IGROV-1, Ovarian cancer IGROV1, 10 μM) was less than 5%, the inhibition at 10 µM (K562, Leukemia K-562, 10 μM) was less than 5% and the inhibition at 10 µM (KM12, Colon cancer KM12, 10 μM) was less than 5%. It also gave an inhibition at 10 µM (LOX IMVI, Melanoma LOX IMVI, 10 μM) of less than 5%, an inhibition at 10 µM (Leukemia SR, 10 μM) of less than 5% and an inhibition at 10 µM (MCF7, Breast cancer MCF7, 10 μM) of 5.52%. The inhibition at 10 µM (MDA-MB-231, Breast cancer MDA-MB-231/ATCC, 10 μM) was 4.98%, the inhibition at 10 µM (MDA-MB-435, Melanoma MDA-MB-435, 10 μM) was less than 5% and the inhibition at 10 µM (MDA-MB-468, Breast cancer MDA-MB-468, 10 μM) was less than 5%. For the same molecule, the inhibition at 10 µM (MOLT-4, Leukemia MOLT-4, 10 μM) was less than 5%, the inhibition at 10 µM (Melanoma M14, 10 μM) was less than 5% and the inhibition at 10 µM (Melanoma MALM-3M, 10 μM) was less than 5%. It also gave an inhibition at 10 µM (NCI-H23, Non-small cell lung cancer NCI-H23, 10 μM) of less than 5%, an inhibition at 10 µM (NCI-H226, Non-small cell lung cancer NCI-H226, 10 μM) of less than 5% and an inhibition at 10 µM (NCI-H322M, Non-small cell lung cancer NCI-H322M, 10 μM) of less than 5%. For the same molecule, the inhibition at 10 µM (NCI-H460, Non-small cell lung cancer NCI-H460, 10 μM) was less than 5%, the inhibition at 10 µM (NCI-H522, Non-small cell lung cancer NCI-H522, 10 μM) was less than 5% and the inhibition at 10 µM (NCI/ADR-RES, Ovarian cancer NCI/ADR-RES, 10 μM) was less than 5%. The inhibition at 10 µM (OVCAR-3, Ovarian cancer OVCAR-3, 10 μM) was less than 5%, the inhibition at 10 µM (OVCAR-4, Ovarian cancer OVCAR-4, 10 μM) was less than 5% and the inhibition at 10 µM (OVCAR-5, Ovarian cancer OVCAR-5, 10 μM) was less than 5%. It also gave an inhibition at 10 µM (OVCAR-8, Ovarian cancer OVCAR-8, 10 μM) of less than 5%, an inhibition at 10 µM (Prostate cancer PC-3, 10 μM) of less than 5% and an inhibition at 10 µM (RPMI-8226, Leukemia RPMI-8226, 10 μM) of less than 5%. It also gave an inhibition at 10 µM (RXF 393, Renal cancer RXF 393, 10 μM) of less than 5%, an inhibition at 10 µM (SF-268, CNS Cancer SF-268, 10 μM) of less than 5% and an inhibition at 10 µM (SF-295, CNS Cancer SF-295, 10 μM) of less than 5%. It also gave an inhibition at 10 µM (SF-539, CNS Cancer SF-539, 10 μM) of less than 5%, an inhibition at 10 µM (SK-MEL-2, Melanoma SK-MEL-2, 10 μM) of less than 5% and an inhibition at 10 µM (SK-MEL-5, Melanoma SK-MEL-5, 10 μM) of less than 5%. It also gave an inhibition at 10 µM (SK-MEL-28, Melanoma SK-MEL-28, 10 μM) of less than 5%, an inhibition at 10 µM (SK-OV-3, Ovarian cancer SK-OV-3, 10 μM) of less than 5% and an inhibition at 10 µM (SN12C, Renal cancer SN12C, 10 μM) of less than 5%. It also gave an inhibition at 10 µM (SNB-19, CNS Cancer SNB-19, 10 μM) of less than 5%, an inhibition at 10 µM (SNB-75, CNS Cancer SNB-75, 10 μM) of less than 5% and an inhibition at 10 µM (SW-620, Colon cancer SW-620, 10 μM) of less than 5%. It also gave an inhibition at 10 µM (T47D, Breast cancer T-47D, 10 μM) of less than 5%, an inhibition at 10 µM (TK-10, Renal cancer TK-10, 10 μM) of less than 5% and an inhibition at 10 µM (U-251, CNS Cancer U251, 10 μM) of less than 5%. It also gave an inhibition at 10 µM (UACC-62, Melanoma UACC-62, 10 μM) of less than 5%, an inhibition at 10 µM (UACC-257, Melanoma UACC-257, 10 μM) of less than 5% and an inhibition at 10 µM (UO-31, Renal cancer UO-31, 10 μM) of 22.6%.
